From PubChem BioAssay (NCI)
Values joined by “and” are separate entries in the source; they are usually repeats but may differ in a detail not shown here. Equal values may be shown once.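 1) Cells in 96-well plates. 2) Compound, 48 h, 5 concentrations. 3) Linear interpolation between surrounding doses. 4) Unreached endpoint = highest concentration. At the GI50, growth is halved. TGI marks complete inhibition of growth.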

What was measured:
Experiment in all cases: NCI tumour cell line growth inhibition, 48 h
HL-60(TB) leukemia = tested on: HL-60(TB) leukemia
OVCAR-4 ovarian = tested on: OVCAR-4 ovarian
SK-MEL-28 melanoma = tested on: SK-MEL-28 melanoma
SR leukemia = tested on: SR leukemia
U251 CNS = tested on: U251 CNS
COLO 205 colon = tested on: COLO 205 colon
HCC-2998 colon = tested on: HCC-2998 colon
HCT-15 colon = tested on: HCT-15 colon
NCI-H226 lung = tested on: NCI-H226 lung
MCF7 breast = tested on: MCF7 breast

Row | Structure (SMILES) | GI50 (HL-60(TB) leukemia) [µM] | TGI (HL-60(TB) leukemia) [µM] | GI50 (OVCAR-4 ovarian) [µM] | TGI (OVCAR-4 ovarian) [µM] | GI50 (SK-MEL-28 melanoma) [µM] | TGI (SK-MEL-28 melanoma) [µM] | GI50 (SR leukemia) | TGI (SR leukemia) [µM] | GI50 (U251 CNS) [µM] | TGI (U251 CNS) [µM] | TGI (COLO 205 colon) | TGI (HCC-2998 colon) | TGI (HCT-15 colon) [µM] | TGI (NCI-H226 lung) | GI50 (COLO 205 colon) [µM] | GI50 (HCC-2998 colon) [µM] | GI50 (HCT-15 colon) [µM] | GI50 (MCF7 breast) [µM] | TGI (MCF7 breast) [µM] | GI50 (NCI-H226 lung) [µM]
1 | O=c1c2ccccc2c(=O)c2c1sc1c(=O)c3ccc(O)cc3c(=O)c12 | 2.38 | 9.77 | 0.88 | 2.1 | 0.247 | 0.541 | 1.08 µM | > 100 | 1.01 | 2.39 |  |  |  |  |  |  |  |  |  | 
2 | O=c1/c(=C/c2ccc3c(c2)OCO3)sc2nnc(Cc3ccccc3)n12 |  | > 100 |  | > 100 |  | > 100 |  |  |  | > 100 | > 100 µM | > 100 µM | > 100 | > 100 µM |  |  |  |  |  | 
3 | CC1(C)Oc2ccccc2N2O[C@@H]3C(=O)N(c4ccccc4)C(=O)[C@@H]3C21c1ccccc1 (stereo partly drawn) |  |  |  | 34.1 |  | 85 |  |  |  | 69.1 | > 100 µM | > 100 µM |  | > 100 µM |  |  |  |  |  | 
4 | Cc1cc(N(CCC#N)CCC#N)ccc1/C=C/C(=O)Nc1ccccc1Cl |  | > 100 |  | > 100 |  | > 100 |  |  |  | > 100 | > 100 µM | > 100 µM | > 100 | > 100 µM |  |  |  |  |  | 
5 | CCOc1ccccc1NC(=O)CCC(=O)NN |  | > 100 |  | > 100 |  | > 100 |  | 70.1 |  | > 100 | > 100 µM | > 100 µM | > 100 | > 100 µM |  |  |  |  |  | 
6 | Cc1cc([C@H](C)Nc2nccc(N3C(=O)OC[C@@H]3[C@H](C)F)n2)ncc1-c1ccnc(C(F)(F)F)c1 | 35.7 | > 100 | 31.2 | > 100 | 48.8 | > 100 |  |  | 39.5 | > 100 | 62.9 µM | > 100 µM | > 100 | > 100 µM | 21.9 | 72.6 | 35.5 | 26.7 | > 100 | 30.5
7 | O=C(O)C(O)c1ccc(F)cc1 (stereo not drawn) |  |  |  | > 100 |  | > 100 |  | > 100 |  | > 100 |  |  | > 100 |  |  |  |  |  | > 100 | 
8 | CN1CCN(CCCOc2ccc3ncnc(Nc4ccc(Oc5cccc(F)c5)c(Cl)c4)c3c2)CC1 | 2.05 | 4.17 | 1.62 | 3.6 | 1.7 | 3.11 |  |  | 1.56 | 3.29 | 3.64 µM | 3.06 µM | 2.92 |  | 1.86 | 1.64 | 1.27 | 1.57 | 3.31 | 
9 | NCCn1c2c(c3ccccc3c1=O)C(=O)c1ccccc1-2 | 0.162 | 0.611 | 0.982 | 3.48 | 1.46 | 3.14 |  |  | 0.544 | 3.59 | 3.99 µM | 1.64 µM | 2.32 | 3.02 µM | 0.605 | 0.329 | 0.271 | 0.292 | 12.6 | 0.452
10 | CN1C(=O)CC2(C)c3cc(C=O)ccc3N(C)C12 (stereo not drawn) |  |  |  | > 100 |  | > 100 |  |  |  | > 100 | > 100 µM | > 100 µM | > 100 | > 100 µM |  |  |  |  |  | 
11 | CCOC(=O)c1cc(C(=O)O)c(=O)n2c1[nH]c1ccccc12 |  | > 100 |  | > 100 |  | > 100 |  |  |  | > 100 | > 100 µM | > 100 µM | > 100 |  |  |  |  |  |  | 
12 | Cc1cc(C)c2nccc(NCCCN(C)C)c2c1[N+](=O)[O-] |  | 78.1 |  | 30.2 |  | 37 |  | > 100 |  | > 100 | 28.5 µM | 51.1 µM | 30.7 |  |  |  |  |  | > 100 | 
13 | COc1cc2c(c(OC)c1OC)-c1ccc(SC)c(=O)cc1[C@@H](NC(=O)c1ccc(F)cc1)CC2 |  | 12.7 |  | 91.1 |  | > 100 | 0.0167 µM and < 0.01 µM | > 100 | < 0.01 | 0.0113 | 0.0388 µM and < 0.01 µM | 0.0572 µM and < 0.01 µM |  | 0.0744 µM and < 0.01 µM | < 0.01 | < 0.01 | 0.043 |  |  | < 0.01
14 | C=CCN(N=O)C(=O)ON1C(=O)CCC1=O |  | > 100 |  | > 100 |  | > 100 |  |  |  | > 100 | > 100 µM | > 100 µM | > 100 |  |  |  |  |  |  | 
15 | c1cc2ccc1C1NCCCN1CCN1CCCNC1c1ccc(cc1)C1NCCCN1CCN1CCCNC21 (stereo not drawn) |  | 67.8 |  | > 100 |  | > 100 |  |  |  | > 100 | > 100 µM |  | > 100 |  |  |  |  |  |  | 
16 | COc1ccc(-c2nc(/C=N/Nc3cc(C)nc4ccc(Br)cc34)c(C)o2)cc1 | 1.49 | 3.47 | 1.72 | 3.31 | 1.79 | 3.23 | 0.315 µM | 1.59 | 1.86 | 3.39 | 3.35 µM | 3.65 µM | 2.33 | 4.64 µM | 1.67 | 1.96 | 0.902 |  |  | 2.09
17 | O=C(/C(=N/Nc1cn[nH]c(=O)c1Cl)c1ccccc1)c1ccccc1 |  | > 100 |  | > 100 |  | > 100 |  |  |  | > 100 | 49.4 µM | 76.7 µM | 51.3 | > 100 µM |  |  |  |  | > 100 | 
18 | CCC1(Cl)C(=O)NC(=O)N(C2CC(O)C(CO)O2)C1N=[N+]=[N-] (stereo not drawn) |  | > 100 |  | > 100 |  | > 100 |  |  |  | > 100 | > 100 µM | > 100 µM |  |  |  |  |  |  |  | 
19 | Fc1ccc(-c2cc(-c3cn[nH]c3-c3ccccn3)ccn2)cc1 | > 25 | > 25 | > 25 | > 25 | > 25 | > 25 |  |  | > 25 | > 25 | > 25 µM | > 25 µM | > 25 | > 25 µM | > 25 | > 25 | > 25 | > 25 | > 25 | > 25
20 | O=C(O)C(Cc1c[nH]c2ccccc12)N1C(=O)c2ccccc2C1=O (stereo not drawn) |  |  |  | > 100 |  | > 100 |  |  |  | > 100 | > 100 µM | > 100 µM | > 100 | > 100 µM |  |  |  |  | > 100 | 
